Calls of active or inactive are those of the source. The calls are words filed in the database; no cut-off is given here.
What was measured:
[1] = Toxicity in athymic nude BALB/c mouse xenografted with human HT-29 cells assessed as reduction in body weight at 5 to 15 mg/kg, ip administered every other day and measured every other day for 16 days; assay type: organism-based; conditions: in vivo, 384 h, dose 5-15 mg/kg, time 16 day
HT-29 [2] = assay: Antitumor activity against human HT-29 cells xenografted in athymic nude BALB/c mouse assessed as induction of autophagy by measuring reduction in p62 expression in tumor at 15 mg/kg, ip administered every other day and measured after 14 days by immunohistochemistry analysis; assay type: functional, organism-based; conditions: time 14.0 day
HT-29 [3] = assay: Antitumor activity against human HT-29 cells xenografted in athymic nude BALB/c mouse assessed as reduction in tumor weight at 5 to 15 mg/kg, ip administered every other day and measured every other day for 16 days; assay type: functional, organism-based; conditions: dose 5-15 mg/kg, time 16.0 day
HT-29 [4] = assay: Induction of apoptosis in human HT-29 cells assessed as early apoptotic cells at 5 uM preincubated with Z-VAD-FMK for 1 hr followed by compound addition and measured after 24 hrs by Annexin V-FITC/PI staining based flow cytometric analysis (reference value: 4.05 %); assay type: functional
[5] = Toxicity in athymic nude BALB/c mouse xenografted with human HT-29 cells assessed as pathological changes in liver at 5 to 15 mg/kg, ip administered every other day and measured after 14 days by hematoxylin and eosin staining-based microscopic analysis; assay type: organism-based; conditions: in vivo, 336 h, dose 5-15 mg/kg, time 14 day
SW-620 = assay: Cytotoxicity against human SW620 cells assessed as decrease in cell viability incubated for 48 hrs by SRB assay; assay type: functional, cell-based; conditions: SW-620, 48 h
HT-29 [6] = assay: Inhibition of colony formation in human HT-29 cells at 0.25 to 10 uM incubated for 24 hrs and measured after 14 days by crystal violet staining based assay; assay type: functional, cell-based; conditions: dose 0.25-10 µM, time 14.0 day
Cell membrane [7] = assay: Disruption of mitochondrial membrane potential in human HT-29 cells at 0.25 to 10 uM measured after 24 hrs by JC-1 staining based flow cytometry analysis; assay type: subcellular; conditions: dose 0.25-10 µM
HCT-116 [8] = assay: Induction of cell cycle arrest in human HCT-116 cells assessed as decrease in P-cdc2 protein expression upto 10 uM incubated for 24 hrs by Western blot analysis; assay type: functional, cell-based
HT-29 [9] = assay: Induction of cell cycle arrest in human HT-29 cells assessed as decrease in Cdc2 protein expression upto 10 uM incubated for 24 hrs by Western blot analysis; assay type: functional, cell-based
HCT-116 [10] = assay: Induction of apoptosis in human HCT-116 cells assessed as early apoptotic cells at 10 uM incubated for 24 hrs by Annexin V-FITC/PI staining based flow cytometric analysis (reference value: 7.22 %); assay type: functional
HCT-116 [11] = assay: Induction of apoptosis in human HCT-116 cells assessed as necrotic cells at 5 uM incubated for 24 hrs by Annexin V-FITC/PI staining based flow cytometric analysis (reference value: 1.1 %); assay type: functional
HCT-116 [12] = assay: Induction of apoptosis in human HCT-116 cells assessed as necrotic cells at 0.5 uM incubated for 24 hrs by Annexin V-FITC/PI staining based flow cytometric analysis (reference value: 1.1 %); assay type: functional
HT-29 [13] = assay: Induction of apoptosis in human HT-29 cells assessed as necrotic cells at 1 uM incubated for 24 hrs by Annexin V-FITC/PI staining based flow cytometric analysis (reference value: 0.14 %); assay type: functional
Cell membrane [14] = assay: Disruption of mitochondrial membrane potential in human HCT-116 cells at upto 10 uM measured after 24 hrs by JC-1 staining based fluorescence microscopy; assay type: subcellular
HT-29 [15] = assay: Induction of apoptosis in human HT-29 cells assessed as inhibition of caspase 8 protein expression measured for 24 hrs by Western blot analysis; assay type: functional, cell-based; conditions: dose 0-10 µM
HT-29 [16] = assay: Induction of apoptosis in human HT-29 cells assessed as viable cells at 5 uM incubated for 24 hrs by Annexin V-FITC/PI staining based flow cytometric analysis (reference value: 88.3 %); assay type: functional; conditions: read-out: Activity
HT-29 [17] = assay: Induction of apoptosis in human HT-29 cells assessed as early apoptotic cells at 5 uM incubated for 24 hrs by Annexin V-FITC/PI staining based flow cytometric analysis (reference value: 4.39 %); assay type: functional
[18] = biological target: T1, Nuclear factor NF-kappa-B complex (Homo sapiens) (UniProt Q00653+P19838+Q04206); assay: Inhibition of TNF-alpha induced NFkappaB activation in human HCT-116 cells assessed as inhibition of IkappaBalpha degradation at 1 to 10 uM pretreated for 24 hrs followed by TNFalpha stimulation for 10 mins by Western blot analysis; assay type: cell-based; conditions: dose 1-10 µM, time 1450.0 min
T1 sequence (P19838 whole entry, looked up): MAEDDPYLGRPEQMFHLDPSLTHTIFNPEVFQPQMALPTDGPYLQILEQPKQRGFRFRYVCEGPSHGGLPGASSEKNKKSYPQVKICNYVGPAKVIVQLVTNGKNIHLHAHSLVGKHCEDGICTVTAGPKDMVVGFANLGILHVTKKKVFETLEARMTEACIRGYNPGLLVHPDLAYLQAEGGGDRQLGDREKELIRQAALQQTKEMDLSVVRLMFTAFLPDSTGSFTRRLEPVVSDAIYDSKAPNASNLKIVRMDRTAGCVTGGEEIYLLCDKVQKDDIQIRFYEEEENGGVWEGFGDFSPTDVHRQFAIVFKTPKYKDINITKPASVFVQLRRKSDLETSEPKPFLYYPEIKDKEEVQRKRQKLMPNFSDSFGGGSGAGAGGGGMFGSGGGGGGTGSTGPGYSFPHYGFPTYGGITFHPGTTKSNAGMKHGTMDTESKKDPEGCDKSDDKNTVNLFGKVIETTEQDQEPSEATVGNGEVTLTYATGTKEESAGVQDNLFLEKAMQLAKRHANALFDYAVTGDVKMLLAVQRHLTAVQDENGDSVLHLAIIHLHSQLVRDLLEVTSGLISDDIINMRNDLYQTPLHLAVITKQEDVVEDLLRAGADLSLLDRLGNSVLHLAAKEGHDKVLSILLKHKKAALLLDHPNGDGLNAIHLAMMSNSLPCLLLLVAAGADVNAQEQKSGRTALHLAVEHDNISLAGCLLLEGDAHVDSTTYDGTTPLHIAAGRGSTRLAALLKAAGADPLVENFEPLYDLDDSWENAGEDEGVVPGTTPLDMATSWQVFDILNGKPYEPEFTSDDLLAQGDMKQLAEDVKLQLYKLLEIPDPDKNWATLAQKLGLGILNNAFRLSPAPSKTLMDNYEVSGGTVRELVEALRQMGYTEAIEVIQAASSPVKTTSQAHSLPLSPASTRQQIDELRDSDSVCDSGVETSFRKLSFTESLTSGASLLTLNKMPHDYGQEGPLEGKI
T1 sequence (Q00653 whole entry, looked up): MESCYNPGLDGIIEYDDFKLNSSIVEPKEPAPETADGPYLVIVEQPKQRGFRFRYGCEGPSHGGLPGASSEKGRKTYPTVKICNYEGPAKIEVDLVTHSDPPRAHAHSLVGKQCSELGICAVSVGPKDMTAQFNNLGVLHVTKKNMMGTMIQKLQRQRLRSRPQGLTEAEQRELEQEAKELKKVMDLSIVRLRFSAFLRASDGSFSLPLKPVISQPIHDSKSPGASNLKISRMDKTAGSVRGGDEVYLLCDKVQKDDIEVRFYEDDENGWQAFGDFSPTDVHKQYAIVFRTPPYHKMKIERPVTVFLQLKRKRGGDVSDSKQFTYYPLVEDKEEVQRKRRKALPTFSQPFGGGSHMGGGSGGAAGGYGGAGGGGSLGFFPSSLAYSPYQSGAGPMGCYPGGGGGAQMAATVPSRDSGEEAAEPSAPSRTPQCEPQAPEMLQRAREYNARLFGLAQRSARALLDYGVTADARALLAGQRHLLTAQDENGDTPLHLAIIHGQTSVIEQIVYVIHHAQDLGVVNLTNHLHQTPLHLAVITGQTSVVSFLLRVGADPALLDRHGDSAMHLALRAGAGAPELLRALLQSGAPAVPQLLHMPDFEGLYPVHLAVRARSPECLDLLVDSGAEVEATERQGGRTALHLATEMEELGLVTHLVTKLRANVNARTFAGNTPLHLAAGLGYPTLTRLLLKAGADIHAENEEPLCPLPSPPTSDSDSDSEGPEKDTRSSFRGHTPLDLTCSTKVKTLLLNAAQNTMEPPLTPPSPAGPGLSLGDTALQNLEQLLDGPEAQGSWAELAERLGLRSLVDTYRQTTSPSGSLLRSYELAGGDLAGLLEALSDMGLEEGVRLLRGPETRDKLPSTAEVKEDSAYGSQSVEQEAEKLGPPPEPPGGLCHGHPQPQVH
T1 sequence (Q04206 whole entry, looked up): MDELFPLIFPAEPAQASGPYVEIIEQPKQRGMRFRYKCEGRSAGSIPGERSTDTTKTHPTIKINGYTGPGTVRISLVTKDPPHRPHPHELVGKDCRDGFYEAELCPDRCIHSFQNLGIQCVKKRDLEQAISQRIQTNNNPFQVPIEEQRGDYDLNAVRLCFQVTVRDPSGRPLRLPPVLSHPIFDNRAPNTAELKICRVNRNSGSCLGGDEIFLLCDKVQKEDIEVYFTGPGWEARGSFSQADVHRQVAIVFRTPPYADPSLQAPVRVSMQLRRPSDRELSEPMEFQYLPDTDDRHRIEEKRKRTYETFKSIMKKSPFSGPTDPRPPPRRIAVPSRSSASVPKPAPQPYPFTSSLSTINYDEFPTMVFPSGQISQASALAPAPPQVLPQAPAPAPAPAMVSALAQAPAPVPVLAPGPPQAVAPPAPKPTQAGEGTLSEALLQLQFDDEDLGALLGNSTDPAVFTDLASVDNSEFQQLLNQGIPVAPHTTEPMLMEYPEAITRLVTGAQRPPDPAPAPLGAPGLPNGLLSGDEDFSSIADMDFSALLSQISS

[19] = biological target: T1, Nuclear factor NF-kappa-B complex (Homo sapiens); assay: Inhibition of TNF-alpha induced NFkappaB activation in human HCT-116 cells assessed as inhibition of IL-8 production at 2 uM pretreated for 24 hrs followed by TNFalpha stimulation for 4 hrs by ELISA; assay type: cell-based; conditions: time 28.0 hrs
RAW264.7 = assay: Inhibition of LPS-induced NFkappaB activation in mouse RAW264.7 cells assessed as inhibition of IkappaBalpha phosphorylation preincubated for 24 hrs followed by LPS stimulation for 3 hrs by Western blot analysis; assay type: cell-based; conditions: dose 1-10 µM, time 27.0 hrs
Mus musculus [20] = assay: In vivo inhibition of NFkappaB activation in athymic BALB/c mouse xenografted with human HT-29 cells assessed as reduction in MCP-1 gene expression in tumor at 5 to 15 mg/kg, ip administered every other day and measured after 14 days by qRT-PCR analysis; assay type: functional, organism-based; conditions: dose 5-15 mg/kg, time 14.0 day
[21] = biological target: T1, Nuclear factor NF-kappa-B complex (Homo sapiens); assay: Inhibition of NFkappaB activation in HEK293T cells transfected with HA-tagged p65 and kappaB luciferase/pTK-renilla reporters at 2 uM incubated for 6 hrs by Dual Luciferase Reporter Assay; assay type: cell-based; conditions: HEK-293T
HT-29 [22] = assay: Antitumor activity against human HT-29 cells xenografted in athymic nude BALB/c mouse assessed as reduction in tumor volume at 5 to 15 mg/kg, ip administered every other day and measured every other day for 16 days; assay type: functional, organism-based; conditions: dose 5-15 mg/kg, time 16.0 day
Mus musculus [23] = assay: (§1) In vivo inhibition of NFkappaB activation in AOM/DSS-induced inflammatory bowel disease BALB/c mouse model assessed as inhibition of serum TNF-alpha production at 5 to 10 mg/kg, ip pretreated with AOM for 7 days further replaced with DSS for 7 days and repeated for 2 times followed by every 2 days compound treatment for […] starting from day 50 by ELISA; assay type: functional, organism-based; conditions: dose 5-10 mg/kg, time 21.0 day
Mus musculus [24] = assay: as §1, with “IL-8” for “TNF-alpha”; assay type: functional, organism-based; conditions: dose 5-10 mg/kg, time 21.0 day
RKO = assay: Cytotoxicity against human RKO cells assessed as decrease in cell viability incubated for 48 hrs by SRB assay; assay type: functional, cell-based
HT-29 [25] = assay: Induction of cell death in human HT-29 cells at 0.5 to 10 uM pretreated with Z-VAD-FMK for 1 hr followed by compound addition and measured after 24 hrs by SRB assay; assay type: functional, cell-based; conditions: dose 0.5-10 µM
HCT-116 [26] = assay: Induction of autophagic flux in human HCT-116 cells assessed as increase in LC3I to LC3II conversion preincubated with 3-methyladenine for 1 hr followed by compound addition and measured after 24 hrs by Western blot analysis; assay type: functional, cell-based
HCT-116 [27] = assay: Induction of autophagic cell death in human HCT-116 cells at 1 to 10 uM pretreated with chloroquine for 1 hr followed by compound addition and measured after 24 hrs by SRB assay; assay type: functional, cell-based; conditions: dose 1-10 µM

C[C@@H]1CC[C@H]2[C@H](C(=O)c3c(O)c([C@@]4(O)CC[C@@H](O)[C@H]5O[C@H]54)cn(O)c3=O)[C@H](C)C=C[C@@H]2C1
Activity [1]: Non-Toxic | Activity (HT-29 [2]): Active | Activity (HT-29 [3]): Active | Activity (HT-29 [4]): 17.1% | Activity [5]: Non-Toxic | IC50 (SW-620): 570 nM | inhibition (HT-29 [6]): Active | Activity (Cell membrane [7]): Active | Activity (HCT-116 [8]): Active | Activity (HT-29 [9]): Active | Activity (HCT-116 [10]): 12.3% | Activity (HCT-116 [11]): 2.9% | Activity (HCT-116 [12]): 2.54% | Activity (HT-29 [13]): 0.4% | Activity (Cell membrane [14]): Active | Activity (HT-29 [15]): Dose-Dependent Effect | viability at 5 µM (HT-29 [16]): 49.5% | Activity (HT-29 [17]): 28.3% | inhibition [18]: Active | inhibition [19]: Active | inhibition (RAW264.7): Dose-Dependent Effect | inhibition (Mus musculus [20]): Active | inhibition [21]: Active | Activity (HT-29 [22]): Active | inhibition (Mus musculus [23]): Active | inhibition (Mus musculus [24]): Active | IC50 (RKO): 570 nM | inhibition (HT-29 [25]): inactive | Activity (HCT-116 [26]): Active | Activity (HCT-116 [27]): inactive

From ChEMBL document CHEMBL5390201, “The Natural Alkaloid (-)-N-Hydroxyapiosporamide Suppresses Colorectal Tumor Progression as an NF-κB Pathway Inhibitor by Targeting the TAK1-TRAF6 Complex” (J Nat Prod, 2023)
